# From patent US20180125835A1, “Dosage and Use of an A2A Antagonist” (H. Lundbeck A/S, priority 2014, published 2018)
# Like-named read-outs stand apart in the source and are kept apart here.
# How the values were obtained:
# [1] = target: T1, A3 (Homo sapiens, UniProt P0DMS8); assay: Adenosine receptor binding affinity, human A3
# T1 sequence (P0DMS8 1-318): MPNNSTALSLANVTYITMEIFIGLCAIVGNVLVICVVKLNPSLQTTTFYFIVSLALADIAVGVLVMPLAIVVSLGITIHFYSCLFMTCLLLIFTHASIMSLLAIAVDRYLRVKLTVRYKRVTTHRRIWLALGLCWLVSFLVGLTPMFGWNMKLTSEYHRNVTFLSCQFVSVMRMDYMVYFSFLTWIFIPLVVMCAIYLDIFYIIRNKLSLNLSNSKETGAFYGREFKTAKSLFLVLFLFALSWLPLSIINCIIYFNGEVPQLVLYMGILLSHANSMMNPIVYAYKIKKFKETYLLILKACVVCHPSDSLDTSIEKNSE
# [2] = target: T2, A1 receptor (Homo sapiens, UniProt P30542); assay: Adenosine receptor binding affinity, human A1
# T2 sequence (P30542 1-326): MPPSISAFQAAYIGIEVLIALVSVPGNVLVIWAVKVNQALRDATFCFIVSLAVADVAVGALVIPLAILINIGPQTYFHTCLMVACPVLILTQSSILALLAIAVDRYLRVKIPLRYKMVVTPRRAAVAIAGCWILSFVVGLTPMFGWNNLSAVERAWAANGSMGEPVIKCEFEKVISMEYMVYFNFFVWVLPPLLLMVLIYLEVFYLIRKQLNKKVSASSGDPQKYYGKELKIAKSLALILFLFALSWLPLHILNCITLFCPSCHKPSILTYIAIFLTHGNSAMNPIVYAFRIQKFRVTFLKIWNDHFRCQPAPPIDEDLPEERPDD
# [3] = tested on: MPTP-lesion marmosets; assay: Disability reversal score in MPTP-lesion marmosets, PK/PD modelling; type: in vivo, marmoset; conditions: MPTP-treated marmosets, 0.1-3 mg/kg, Emax PK/PD modelling
# Description: Marmosets received several MPTP regimens (single MPTP regimen: 2 mg/kg, s.c., per day for 3 consecutive days) before the marmosets were used for PK/PD measurements.
# In the absence of any striatal occupancy data in marmoset to relate plasma concentration needed for EC80 A2A occupancy for human dose projection, a daily dose range of 3-24 mg was established based on predicted EC50-80 plasma concentrations of rat striatal occupancy and marmoset disability reversal score.
# [4] = Safety and tolerability study, single-dose pharmacokinetics (Parts A, B, C); type: in vivo, human; conditions: for intra-subject variability (CV %) for AUC0-inf / intra-subject variability (CV %) for Cmax: across the fasting doses; for half-life / Vd/F / Tmax / AUC(0-inf) / Cmax / AUC(0-t): human, oral; for Vd/F: read-out: Vz/F
# Description: The study was conducted in three parts: Parts A, B, and C.
# Parts A and B were single-dose escalations to determine the safety and tolerability in young healthy men, and in elderly men and women, respectively. Three doses (Cohorts A1 to A3) were tested in healthy young men: 1 mg (N=6), 5 mg (N=6), and 10 mg (N=5); placebo (N=8, total of the three cohorts). […] Two doses (Cohorts B1 and B2) were tested in healthy elderly men and women: 5 mg (N=9 men/4 women), 10 mg (N=4 men/4 women); placebo (N=6 men/4 women, total of the three cohorts). […] A washout period of at least 7 days separated each dose administration.
# [5] = target: A2A receptor (Mus musculus, UniProt Q60613); assay: Adenosine receptor binding affinity, mouse A2A
# [6] = tested on: 57 counter-screen targets (receptors, ion channels and transporters); assay: Counter-screen binding panel of CNS targets
# [7] = both sexes, plasma, 5 mg, Part B, healthy elderly overall, arithmetic mean
# [8] = both sexes, plasma, 5 mg, Part C, elderly men and women, Fasting (N = 24)
# [9] = both sexes, plasma, 5 mg, Part C, elderly men and women, Fed (N = 12)
# [10] = both sexes, plasma, 10 mg, Part B, healthy elderly overall, arithmetic mean
# [11] = female, plasma, 5 mg, Part B, healthy elderly women, arithmetic mean
# [12] = female, plasma, 10 mg, Part B, healthy elderly women, arithmetic mean
# [13] = male, plasma, 1 mg, Part A, healthy young men, 1 mg single dose, mean (CV %)
# [14] = male, plasma, 5 mg, Part A, healthy young men, 5 mg single dose, mean (CV %)
# [15] = male, plasma, 5 mg, Part B, healthy elderly men, arithmetic mean
# [16] = male, plasma, 10 mg, Part A, healthy young men, 10 mg single dose, mean (CV %)
# [17] = male, plasma, 10 mg, Part B, healthy elderly men, arithmetic mean
# Chain of A2A receptor (Q60613 whole entry): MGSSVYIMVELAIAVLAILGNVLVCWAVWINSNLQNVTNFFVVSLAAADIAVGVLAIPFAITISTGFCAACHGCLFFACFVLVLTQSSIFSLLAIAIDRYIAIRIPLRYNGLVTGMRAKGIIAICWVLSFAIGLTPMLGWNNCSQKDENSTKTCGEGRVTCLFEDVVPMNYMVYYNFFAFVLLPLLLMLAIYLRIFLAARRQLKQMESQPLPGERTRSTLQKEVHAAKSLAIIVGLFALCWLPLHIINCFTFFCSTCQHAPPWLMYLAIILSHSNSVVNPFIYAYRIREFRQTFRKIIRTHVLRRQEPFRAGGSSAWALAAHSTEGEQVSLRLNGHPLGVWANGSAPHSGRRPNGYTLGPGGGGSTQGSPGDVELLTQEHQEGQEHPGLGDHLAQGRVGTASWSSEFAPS
smiles,measurement,setting,value
Cc1ccc(C(=O)Nc2nc(-c3ccco3)c(C(=O)C3CCOCC3)s2)cn1 [Compound 504],Ki,[1],428 ± 72.5 nM
same,Ki,[2],103 ± 18.4 nM
same,EC80 plasma concentration for disability reversal score,[3],0.175 µg/mL
same,differences in exposure between men and women,[4]; Part B,no marked differences
same,CL/F,"[4]; Part B, healthy elderly men, 5 mg, arithmetic mean",0.611 L/h
same,CL/F,"[4]; Part B, healthy elderly men, 10 mg, arithmetic mean",0.908 L/h
same,CL/F,"[4]; Part B, healthy elderly overall, 5 mg, arithmetic mean",0.597 L/h
same,CL/F,"[4]; Part B, healthy elderly overall, 10 mg, arithmetic mean",0.844 L/h
same,CL/F,"[4]; Part B, healthy elderly women, 5 mg, arithmetic mean",0.556 L/h
same,CL/F,"[4]; Part B, healthy elderly women, 10 mg, arithmetic mean",0.780 L/h
same,mean Cmax lower in the fed state than in the fasting state,"[4]; Part C, 5 mg",approximately 23%
same,overall exposure (AUC0-inf and AUC0-t) fed compared to fasting,"[4]; Part C, 5 mg",not statistically significantly different
same,intra-subject variability (CV %) for AUC0-inf,"[4]; Part C, men",27%
same,intra-subject variability (CV %) for Cmax,"[4]; Part C, men",16%
same,intra-subject variability (CV %) for AUC0-inf,"[4]; Part C, women",59%
same,intra-subject variability (CV %) for Cmax,"[4]; Part C, women",23%
same,time until which plasma concentration plateaued after Cmax,"[4]; Parts A and B, post-dose",approximately 5 hours
same,half-life,"[4]; both sexes, in vivo, Parts A and B, 1 to 10 mg, read-out: mean half-life (t1/2) across dose levels",19 to 25 h
same,Vd/F,"[4]; both sexes, plasma, 5 mg, Part B, healthy elderly overall, 5 mg, arithmetic mean",16.9 L
same,half-life,"[4]; both sexes, plasma, 5 mg, Part B, healthy elderly overall, 5 mg, arithmetic mean, read-out: t1/2 (converted)",22 h
same,Tmax,"[4]; both sexes, plasma, 5 mg, Part B, healthy elderly overall, 5 mg, median, read-out: tmax",1 h
same,AUC(0-inf),[4]; [7],9580 ng·h/mL
same,Cmax,[4]; [7],388 ng/mL
same,Tmax,"[4]; both sexes, plasma, 5 mg, Part C, 5 mg, read-out: delay of median tmax in the fed state",2 to 3 h
same,half-life,"[4]; both sexes, plasma, 5 mg, Part C, elderly men and women, 5 mg, Fasting (N = 24), read-out: t1/2 (converted)",14.9 h
same,half-life,"[4]; both sexes, plasma, 5 mg, Part C, elderly men and women, 5 mg, Fed (N = 11), read-out: t1/2 (converted)",15.8 h
same,AUC(0-inf),[4]; [8],6310 ng·h/mL
same,AUC(0-t),[4]; [8],5960 ng·h/mL
same,Cmax,[4]; [8],348 ng/mL
same,AUC(0-inf),"[4]; both sexes, plasma, 5 mg, Part C, elderly men and women, Fed (N = 11)",5960 ng·h/mL
same,AUC(0-t),[4]; [9],5560 ng·h/mL
same,Cmax,[4]; [9],269 ng/mL
same,Vd/F,"[4]; both sexes, plasma, 10 mg, Part B, healthy elderly overall, 10 mg, arithmetic mean",20.6 L
same,half-life,"[4]; both sexes, plasma, 10 mg, Part B, healthy elderly overall, 10 mg, arithmetic mean, read-out: t1/2 (converted)",20.2 h
same,Tmax,"[4]; both sexes, plasma, 10 mg, Part B, healthy elderly overall, 10 mg, median, read-out: tmax",0.75 h
same,AUC(0-inf),[4]; [10],14900 ng·h/mL
same,Cmax,[4]; [10],717 ng/mL
same,Tmax,"[4]; both sexes, plasma, Parts A and B, each dose, post-dose, read-out: median tmax",0.75 to 1.75 h
same,increase of exposure (AUC0-24 and Cmax) with dose,[4]; dose range 1 to 10 mg,approximate dose-proportional manner
same,Vd/F,"[4]; female, plasma, 5 mg, Part B, healthy elderly women, 5 mg, arithmetic mean",13.6 L
same,half-life,"[4]; female, plasma, 5 mg, Part B, healthy elderly women, 5 mg, arithmetic mean, read-out: t1/2 (converted)",17.4 h
same,Tmax,"[4]; female, plasma, 5 mg, Part B, healthy elderly women, 5 mg, median, read-out: tmax",1 h
same,AUC(0-inf),[4]; [11],9550 ng·h/mL
same,Cmax,[4]; [11],485 ng/mL
same,Vd/F,"[4]; female, plasma, 10 mg, Part B, healthy elderly women, 10 mg, arithmetic mean",19.6 L
same,half-life,"[4]; female, plasma, 10 mg, Part B, healthy elderly women, 10 mg, arithmetic mean, read-out: t1/2 (converted)",18.8 h
same,Tmax,"[4]; female, plasma, 10 mg, Part B, healthy elderly women, 10 mg, median, read-out: tmax",0.75 h
same,AUC(0-inf),[4]; [12],14100 ng·h/mL
same,Cmax,[4]; [12],781 ng/mL
same,differences in pharmacokinetic profile between healthy young and elderly subjects,[4]; in vivo,no apparent differences
same,AUC(0-inf),[4]; [13],2660 ng·h/mL
same,Cmax,[4]; [13],82.7 ng/mL
same,Vd/F,[4]; [13],13.4 L
same,half-life,"[4]; male, plasma, 1 mg, Part A, healthy young men, 1 mg single dose, mean (CV %), read-out: t1/2 (converted)",24.3 h
same,Tmax,"[4]; male, plasma, 1 mg, Part A, healthy young men, 1 mg single dose, median (min, max), read-out: tmax",1.25 h
same,AUC(0-inf),[4]; [14],12600 ng·h/mL
same,Cmax,[4]; [14],423 ng/mL
same,Vd/F,[4]; [14],14.8 L
same,half-life,"[4]; male, plasma, 5 mg, Part A, healthy young men, 5 mg single dose, mean (CV %), read-out: t1/2 (converted)",25 h
same,Tmax,"[4]; male, plasma, 5 mg, Part A, healthy young men, 5 mg single dose, median (min, max), read-out: tmax",1.75 h
same,Vd/F,"[4]; male, plasma, 5 mg, Part B, healthy elderly men, 5 mg, arithmetic mean",18 L
same,half-life,"[4]; male, plasma, 5 mg, Part B, healthy elderly men, 5 mg, arithmetic mean, read-out: t1/2 (converted)",23.5 h
same,Tmax,"[4]; male, plasma, 5 mg, Part B, healthy elderly men, 5 mg, median, read-out: tmax",1 h
same,AUC(0-inf),[4]; [15],9590 ng·h/mL
same,Cmax,[4]; [15],356 ng/mL
same,AUC(0-inf),[4]; [16],18100 ng·h/mL
same,Cmax,[4]; [16],787 ng/mL
same,Vd/F,[4]; [16],15.3 L
same,half-life,"[4]; male, plasma, 10 mg, Part A, healthy young men, 10 mg single dose, mean (CV %), read-out: t1/2 (converted)",19.3 h
same,Tmax,"[4]; male, plasma, 10 mg, Part A, healthy young men, 10 mg single dose, median (min, max), read-out: tmax",1 h
same,Vd/F,"[4]; male, plasma, 10 mg, Part B, healthy elderly men, 10 mg, arithmetic mean",21.6 L
same,half-life,"[4]; male, plasma, 10 mg, Part B, healthy elderly men, 10 mg, arithmetic mean, read-out: t1/2 (converted)",21.6 h
same,Tmax,"[4]; male, plasma, 10 mg, Part B, healthy elderly men, 10 mg, median, read-out: tmax",0.75 h
same,AUC(0-inf),[4]; [17],15700 ng·h/mL
same,Cmax,[4]; [17],652 ng/mL
same,Ki,[5],0.322 ± 0.0114 nM
same,"affinity for other receptors, ion channels and transporters","[6]; DA, 5-HT, Ach, GABA, Glu, opiates, cannabinoid, calcium, potassium channels, transporters",Little or no affinity
same,inhibition of binding,"[6]; at 10 μM, any of the 57 counter-screen targets",Less than 50%
